From ChEMBL document CHEMBL4311992, “Discovery of 3-(((9H-purin-6-yl)amino)methyl)-4,6-dimethylpyridin-2(1H)-one derivatives as novel tubulin polymerization inhibitors for treatment of cancer” (Eur J Med Chem, 2019)
Active and inactive are the calls of the source. The calls are words filed in the database; no cut-off is given here.

What was measured:
[1] = target: Dual specificity tyrosine-phosphorylation-regulated kinase 1A (Homo sapiens) (UniProt Q13627); experiment: Inhibition of recombinant full-length human DYRK1A assessed as residual activity at 10 uM using RRRFRPASPLRGPPK as substrate measured after 40 mins in presence of [gamma33P]ATP by scintillation counting method
[2] = tested on: HCT-116; experiment: Induction of apoptosis in human HCT116 cells assessed as early apoptotic cells at 50 nM measured after 48 hrs by Annexin V-FITC/propidium iodide staining-based flow cytometry (reference value: 0.418%); type: functional
[3] = tested on: HCT-116; experiment: Induction of apoptosis in human HCT116 cells assessed as early apoptotic cells at 100 nM measured after 48 hrs by Annexin V-FITC/propidium iodide staining-based flow cytometry (reference value: 0.418%); type: functional
[4] = target: Dual specificity mitogen-activated protein kinase kinase 2 (Homo sapiens) (UniProt P36507); experiment: Inhibition of recombinant full-length human MEK2 assessed as residual activity at 10 uM using MBP as substrate measured after 40 mins in presence of [gamma33P]ATP by scintillation counting method
Sequence of Dual specificity mitogen-activated protein kinase kinase 2 (Homo sapiens) (P36507 whole entry): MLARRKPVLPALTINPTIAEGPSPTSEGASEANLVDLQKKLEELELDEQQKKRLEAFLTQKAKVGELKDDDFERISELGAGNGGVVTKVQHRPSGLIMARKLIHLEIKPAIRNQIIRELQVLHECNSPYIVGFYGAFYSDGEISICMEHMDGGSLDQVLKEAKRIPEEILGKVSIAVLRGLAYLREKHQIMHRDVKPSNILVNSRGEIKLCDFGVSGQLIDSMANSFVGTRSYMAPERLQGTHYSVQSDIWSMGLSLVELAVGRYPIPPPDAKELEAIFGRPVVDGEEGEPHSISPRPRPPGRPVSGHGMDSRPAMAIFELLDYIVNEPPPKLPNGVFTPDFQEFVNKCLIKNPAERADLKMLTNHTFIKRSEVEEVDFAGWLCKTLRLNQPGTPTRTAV

[5] = tested on: SW-620; experiment: Induction of apoptosis in human SW620 cells assessed as increase in cleaved PARP expression up to 200 nM measured after 48 hrs by Western blot analysis; type: functional, cell-based
[6] = tested on: SW-620; experiment: Induction of apoptosis in human SW620 cells assessed as decrease in Bcl2 expression up to 200 nM measured after 48 hrs by Western blot analysis; type: functional, cell-based
[7] = species: Homo sapiens; experiment: Inhibition of recombinant full-length human PI3K p110delta/p85alpha N253S mutant assessed as residual activity at 10 uM using phosphatidylinositol-4, 5-bisphosphate as substrate measured after 40 mins by fluorescence assay
[8] = target: Serine/threonine-protein kinase haspin (Homo sapiens) (UniProt Q8TF76); experiment: Inhibition of recombinant human haspin (471 to end residues) assessed as residual activity at 10 uM using RARTLSFAEPG as substrate measured after 40 mins in presence of [gamma33P]ATP by scintillation counting method
[9] = tested on: Tyrosine-protein kinase ABL1 (Homo sapiens), P00519 [T315I]; experiment: Inhibition of recombinant human ABL T315I mutant (27 to end residues) assessed as residual activity at 10 uM using EAIYAAPFAKKK as substrate measured after 40 mins in presence of [gamma33P]ATP by scintillation counting method
[10] = target: [Pyruvate dehydrogenase (acetyl-transferring)] kinase isozyme 4, mitochondrial (Homo sapiens) (UniProt Q16654); experiment: Inhibition of recombinant full-length human PDHK4 assessed as residual activity at 10 uM using KKKYHGHSMSDPGVSYRT as substrate measured after 40 mins in presence of [gamma33P]ATP by scintillation counting method
Sequence of [Pyruvate dehydrogenase (acetyl-transferring)] kinase isozyme 4, mitochondrial (Homo sapiens) (Q16654 whole entry, looked up, the tested form may be a part, canonical isoform): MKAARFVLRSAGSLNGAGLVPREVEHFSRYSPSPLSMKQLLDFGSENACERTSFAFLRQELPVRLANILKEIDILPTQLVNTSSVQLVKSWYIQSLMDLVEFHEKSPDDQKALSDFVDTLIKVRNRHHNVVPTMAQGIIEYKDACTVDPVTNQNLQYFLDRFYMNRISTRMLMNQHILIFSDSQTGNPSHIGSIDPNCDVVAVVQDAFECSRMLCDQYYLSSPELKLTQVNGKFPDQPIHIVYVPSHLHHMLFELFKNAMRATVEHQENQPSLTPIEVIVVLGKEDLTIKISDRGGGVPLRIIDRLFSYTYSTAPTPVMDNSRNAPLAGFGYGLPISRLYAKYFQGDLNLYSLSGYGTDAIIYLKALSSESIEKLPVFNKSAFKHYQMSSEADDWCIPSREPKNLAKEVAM

[11] = tested on: Phosphorylase b kinase gamma catalytic chain, liver/testis isoform (Homo sapiens), P15735 [F290L]; experiment: Inhibition of recombinant human PhKgamma2 F290L mutant (1 to 301 residues) assessed as residual activity at 10 uM using KKLNRTLSFAEPG as substrate measured after 40 mins in presence of [gamma33P]ATP by scintillation counting method
[12] = target: CDK3/Cyclin E (Homo sapiens) (UniProt P24864+Q00526); experiment: Inhibition of recombinant full-length human CDK3/cyclinE assessed as residual activity at 10 uM using histone H1 as substrate measured after 40 mins in presence of [gamma33P]ATP by scintillation counting method; type: protein-complex assay
Sequence of CDK3/Cyclin E (Homo sapiens) (P24864 whole entry, looked up): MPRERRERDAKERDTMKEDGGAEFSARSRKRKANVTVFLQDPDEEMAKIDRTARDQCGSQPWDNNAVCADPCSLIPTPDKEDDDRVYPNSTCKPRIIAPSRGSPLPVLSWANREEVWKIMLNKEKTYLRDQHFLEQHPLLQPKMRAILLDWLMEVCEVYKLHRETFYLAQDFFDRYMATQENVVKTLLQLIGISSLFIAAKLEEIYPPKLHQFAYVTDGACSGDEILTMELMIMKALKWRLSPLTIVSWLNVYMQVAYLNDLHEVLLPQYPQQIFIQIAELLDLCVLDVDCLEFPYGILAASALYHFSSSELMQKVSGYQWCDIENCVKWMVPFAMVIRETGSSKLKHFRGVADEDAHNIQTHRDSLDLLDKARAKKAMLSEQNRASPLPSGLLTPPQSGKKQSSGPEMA
Sequence of CDK3/Cyclin E (Homo sapiens) (Q00526 whole entry, looked up): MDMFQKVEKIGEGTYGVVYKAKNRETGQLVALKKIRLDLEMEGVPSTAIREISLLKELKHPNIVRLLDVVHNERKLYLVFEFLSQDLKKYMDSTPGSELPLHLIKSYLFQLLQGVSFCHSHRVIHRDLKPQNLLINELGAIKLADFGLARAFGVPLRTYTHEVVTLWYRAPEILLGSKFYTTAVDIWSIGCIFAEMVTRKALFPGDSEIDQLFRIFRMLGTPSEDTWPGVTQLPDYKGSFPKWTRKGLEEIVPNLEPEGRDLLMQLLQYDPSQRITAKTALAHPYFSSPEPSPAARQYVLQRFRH

[13] = target: Serine/threonine-protein kinase PLK1 (Homo sapiens) (UniProt P53350); experiment: Inhibition of recombinant full-length human Plk1 assessed as residual activity at 10 uM using casein as substrate measured after 40 mins in presence of [gamma33P]ATP by scintillation counting method
Sequence of Serine/threonine-protein kinase PLK1 (Homo sapiens) (P53350 whole entry): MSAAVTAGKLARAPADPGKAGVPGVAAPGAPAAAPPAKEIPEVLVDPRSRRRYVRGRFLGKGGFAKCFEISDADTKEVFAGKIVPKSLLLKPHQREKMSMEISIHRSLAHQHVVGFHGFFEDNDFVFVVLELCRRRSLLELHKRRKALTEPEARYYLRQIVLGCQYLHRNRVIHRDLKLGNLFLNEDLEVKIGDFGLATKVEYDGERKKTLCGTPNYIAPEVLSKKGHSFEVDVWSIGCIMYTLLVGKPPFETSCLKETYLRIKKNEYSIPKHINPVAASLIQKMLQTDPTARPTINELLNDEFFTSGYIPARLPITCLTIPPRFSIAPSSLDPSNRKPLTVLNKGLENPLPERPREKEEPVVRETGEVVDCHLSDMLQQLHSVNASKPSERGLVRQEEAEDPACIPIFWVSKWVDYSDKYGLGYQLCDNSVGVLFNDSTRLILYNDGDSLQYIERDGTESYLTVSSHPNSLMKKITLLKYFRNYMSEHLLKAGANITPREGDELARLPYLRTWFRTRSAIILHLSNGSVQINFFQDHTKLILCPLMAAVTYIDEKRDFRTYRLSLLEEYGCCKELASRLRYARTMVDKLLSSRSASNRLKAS

[14] = tested on: HCT-116; experiment: Antitumor activity against human HCT116 cells xenografted in nude BALB/c mouse assessed as reduction in tumor weight at 40 mg/kg, po administered once daily for 4 weeks measured every 3 days during compound dosing; type: functional, organism-based
[15] = target: Glycogen synthase kinase-3 alpha (Homo sapiens) (UniProt P49840); experiment: Inhibition of recombinant human GSK3alpha (2 to end residues) assessed as residual activity at 10 uM using phospho GS2 peptide as substrate measured after 40 mins in presence of [gamma33P]ATP by scintillation counting method
Sequence of Glycogen synthase kinase-3 alpha (Homo sapiens) (P49840 2-483 limits assumed): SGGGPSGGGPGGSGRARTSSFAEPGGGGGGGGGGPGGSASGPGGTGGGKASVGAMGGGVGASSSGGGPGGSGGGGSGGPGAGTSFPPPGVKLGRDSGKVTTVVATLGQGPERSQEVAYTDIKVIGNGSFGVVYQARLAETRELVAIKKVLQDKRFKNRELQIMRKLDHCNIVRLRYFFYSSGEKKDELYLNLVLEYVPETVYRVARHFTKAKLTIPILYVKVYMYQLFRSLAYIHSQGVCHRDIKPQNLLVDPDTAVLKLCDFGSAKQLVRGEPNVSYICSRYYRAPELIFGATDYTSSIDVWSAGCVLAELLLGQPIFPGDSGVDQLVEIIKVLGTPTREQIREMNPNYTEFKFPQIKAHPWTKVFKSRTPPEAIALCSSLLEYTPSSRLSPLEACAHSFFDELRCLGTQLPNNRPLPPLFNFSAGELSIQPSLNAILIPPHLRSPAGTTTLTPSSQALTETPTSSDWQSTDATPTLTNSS

[16] = tested on: SW480; experiment: Antiproliferative activity against human SW480 cells assessed as reduction in cell viability after 72 hrs by MTT assay; type: functional, cell-based; conditions: SW480, 72 h
[17] = tested on: PI3-kinase p110-alpha/p85-alpha (Homo sapiens), P27986+P42336 [H1047R]; experiment: Inhibition of recombinant full-length human PI3K p110alpha/p85alpha H1047R mutant assessed as residual activity at 10 uM using phosphatidylinositol-4, 5-bisphosphate as substrate measured after 40 mins by fluorescence assay; type: protein-complex assay
[18] = tested on: Fibroblast growth factor receptor 2 (Homo sapiens), P21802 [N549H]; experiment: Inhibition of recombinant human FGFR2 N549H mutant (456 to 770 residues) assessed as residual activity at 10 uM using GGEEEEYFELVKKKK as substrate measured after 40 mins in presence of [gamma33P]ATP by scintillation counting method
Sequence of Fibroblast growth factor receptor 2 (Homo sapiens), P21802 [N549H] (P21802 whole entry N549H, the tested form may be a part): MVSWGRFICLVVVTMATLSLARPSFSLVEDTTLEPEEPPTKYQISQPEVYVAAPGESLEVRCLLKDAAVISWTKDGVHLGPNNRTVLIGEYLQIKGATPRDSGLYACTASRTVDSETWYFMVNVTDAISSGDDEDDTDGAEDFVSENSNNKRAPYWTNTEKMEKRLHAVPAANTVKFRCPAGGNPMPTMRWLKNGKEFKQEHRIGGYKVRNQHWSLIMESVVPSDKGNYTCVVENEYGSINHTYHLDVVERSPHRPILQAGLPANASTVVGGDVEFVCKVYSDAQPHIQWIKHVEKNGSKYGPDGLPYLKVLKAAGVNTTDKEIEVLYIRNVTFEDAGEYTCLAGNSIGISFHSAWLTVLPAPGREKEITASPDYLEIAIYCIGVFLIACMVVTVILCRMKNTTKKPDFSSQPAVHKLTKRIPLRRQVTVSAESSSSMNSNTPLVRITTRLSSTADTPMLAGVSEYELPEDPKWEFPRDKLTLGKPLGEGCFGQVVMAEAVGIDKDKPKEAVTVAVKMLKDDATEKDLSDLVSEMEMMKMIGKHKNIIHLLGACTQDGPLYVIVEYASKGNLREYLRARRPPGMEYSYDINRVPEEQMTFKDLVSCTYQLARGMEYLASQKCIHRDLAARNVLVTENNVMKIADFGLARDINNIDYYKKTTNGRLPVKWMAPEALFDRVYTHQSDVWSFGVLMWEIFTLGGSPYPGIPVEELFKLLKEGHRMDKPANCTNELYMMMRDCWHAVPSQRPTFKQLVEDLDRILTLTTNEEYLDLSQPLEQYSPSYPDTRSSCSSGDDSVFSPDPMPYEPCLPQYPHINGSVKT

[19] = target: Tyrosine-protein kinase Lck (Homo sapiens) (UniProt P06239); experiment: Inhibition of recombinant full-length human Lck assessed as residual activity at 10 uM using KVEKIGEGTYGVV as substrate measured after 40 mins in presence of [gamma33P]ATP by scintillation counting method
[20] = tested on: Glycogen synthase kinase-3 beta (Homo sapiens), P49841 [UNDEFINED MUTATION]; experiment: Inhibition of recombinant human GSK3beta H350L mutant (2 to end residues) assessed as residual activity at 10 uM using phospho GS2 peptide as substrate measured after 40 mins in presence of [gamma33P]ATP by scintillation counting method
[21] = target: Protein kinase C zeta type (Homo sapiens) (UniProt Q05513); experiment: Inhibition of recombinant human PKCzeta (2 to end residues) assessed as residual activity at 10 uM using ERMRPRKRQGSVRRRV as substrate measured after 40 mins in presence of [gamma33P]ATP by scintillation counting method
Sequence of Protein kinase C zeta type (Homo sapiens) (Q05513 whole entry, canonical isoform): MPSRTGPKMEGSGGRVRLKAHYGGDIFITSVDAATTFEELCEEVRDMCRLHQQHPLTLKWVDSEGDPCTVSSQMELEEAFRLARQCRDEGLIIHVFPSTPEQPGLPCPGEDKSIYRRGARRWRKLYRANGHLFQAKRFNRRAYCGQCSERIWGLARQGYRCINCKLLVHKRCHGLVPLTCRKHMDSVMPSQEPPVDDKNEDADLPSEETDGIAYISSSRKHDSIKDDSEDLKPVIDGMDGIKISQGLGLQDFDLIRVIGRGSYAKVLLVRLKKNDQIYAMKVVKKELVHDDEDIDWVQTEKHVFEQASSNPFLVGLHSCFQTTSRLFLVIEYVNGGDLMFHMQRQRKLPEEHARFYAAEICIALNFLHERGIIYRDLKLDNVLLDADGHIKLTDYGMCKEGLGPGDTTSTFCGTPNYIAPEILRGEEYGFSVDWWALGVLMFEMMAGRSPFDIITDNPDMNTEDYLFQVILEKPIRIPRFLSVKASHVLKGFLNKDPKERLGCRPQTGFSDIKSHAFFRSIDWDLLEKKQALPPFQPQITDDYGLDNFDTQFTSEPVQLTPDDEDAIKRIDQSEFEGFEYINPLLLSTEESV

[22] = target: Casein kinase I isoform epsilon (Homo sapiens) (UniProt P49674); experiment: Inhibition of human CK1epsilon assessed as residual activity at 10 uM using KRRRALS(p)VASLPGL as substrate measured after 120 mins in presence of [gamma33P]ATP by scintillation counting method
Sequence of Casein kinase I isoform epsilon (Homo sapiens) (P49674 whole entry, looked up, the tested form may be a part, canonical isoform): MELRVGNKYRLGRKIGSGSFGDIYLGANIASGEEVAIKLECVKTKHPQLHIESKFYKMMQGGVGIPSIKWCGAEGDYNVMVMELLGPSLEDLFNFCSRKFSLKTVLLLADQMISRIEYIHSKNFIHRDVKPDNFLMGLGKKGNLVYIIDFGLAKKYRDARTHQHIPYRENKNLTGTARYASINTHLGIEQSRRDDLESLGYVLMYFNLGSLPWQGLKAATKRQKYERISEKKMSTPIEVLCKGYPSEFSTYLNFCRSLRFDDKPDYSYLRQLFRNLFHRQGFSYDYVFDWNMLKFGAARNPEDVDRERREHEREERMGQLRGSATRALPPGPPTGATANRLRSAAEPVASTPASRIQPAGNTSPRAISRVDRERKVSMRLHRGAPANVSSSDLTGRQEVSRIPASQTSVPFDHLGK

[23] = target: Tau-tubulin kinase 2 (Homo sapiens) (UniProt Q6IQ55); experiment: Inhibition of human TTBK2 (1 to 331 residues) using Casein as substrate measured after 40 mins in presence of [gamma33P]ATP by scintillation counting method; parameters: scale not given: the % may be the effect or the level left
[24] = target: LIM domain kinase 1 (Homo sapiens) (UniProt P53667); experiment: Inhibition of recombinant human LIMK1 (285 to 638 residues) assessed as residual activity at 10 uM using cofilin as substrate measured after 40 mins in presence of [gamma33P]ATP by scintillation counting method
[25] = target: Serine/threonine-protein kinase PAK 3 (Homo sapiens) (UniProt O75914); experiment: Inhibition of recombinant full-length human PAK3 assessed as residual activity at 10 uM using RRRLSFAEPG as substrate measured after 40 mins in presence of [gamma33P]ATP by scintillation counting method
Sequence of Serine/threonine-protein kinase PAK 3 (Homo sapiens) (O75914 whole entry, looked up): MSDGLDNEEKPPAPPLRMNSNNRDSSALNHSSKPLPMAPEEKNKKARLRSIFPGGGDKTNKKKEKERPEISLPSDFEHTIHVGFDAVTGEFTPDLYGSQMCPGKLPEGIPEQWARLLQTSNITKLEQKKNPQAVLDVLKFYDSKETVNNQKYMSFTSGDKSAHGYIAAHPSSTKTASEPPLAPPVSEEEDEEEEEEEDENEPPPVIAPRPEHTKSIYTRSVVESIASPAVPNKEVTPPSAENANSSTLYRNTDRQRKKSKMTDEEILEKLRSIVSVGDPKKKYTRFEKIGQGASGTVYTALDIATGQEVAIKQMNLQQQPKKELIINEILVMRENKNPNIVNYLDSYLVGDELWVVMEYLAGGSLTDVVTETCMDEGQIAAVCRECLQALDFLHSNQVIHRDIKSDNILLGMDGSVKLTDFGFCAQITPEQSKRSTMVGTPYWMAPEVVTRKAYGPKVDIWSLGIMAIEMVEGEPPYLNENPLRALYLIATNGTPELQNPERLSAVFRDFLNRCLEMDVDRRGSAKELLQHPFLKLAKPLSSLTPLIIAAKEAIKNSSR

## Cc1cc(C)c(CNc2nc(Cl)nc3c2ncn3C2CCCC2)c(=O)[nH]1
[1]
  Activity: 100%
[2]
  Activity: 3.57%
[3]
  Activity: 5.35%
[4]
  Activity: 109%
[5]
  Activity: Active
[6]
  Activity: Active
[7]
  Activity: 99.5%
[8]
  Activity: 89%
[9]
  Activity: 108%
[10]
  Activity: 95%
[11]
  Activity: 92%
[12]
  Activity: 113%
[13]
  Activity: 112%
[14]
  Activity: Active
[15]
  Activity: 102%
[16]
  IC50: 64.5 nM
[17]
  Activity: 101%
[18]
  Activity: 88%
[19]
  Activity: 84.5%
[20]
  Activity: 112%
[21]
  Activity: 99.5%
[22]
  Activity: 100%
[23]
  Activity: 104%
[24]
  Activity: 101%
[25]
  Activity: 134%
